According to patent US20250152585A1, “PHARMACEUTICAL COMPOUND” (Duke Street Bio Limited, priority 2022, published 2025):
Where two headings read alike, the source gives them in different places.

Experiments:
[1] = target: T1, full length N-terminally FLAG-tagged PARP1 (Homo sapiens, UniProt P09874); assay: PARP1 probe displacement HTRF assay; settings: for Selectivity: PARP1 over PARP2, ratio Kd (PARP2)/Kd (PARP1), probe displacement HTRF; for Kd: binned Kd, PARP1 probe displacement HTRF
[2] = target: T2, N-terminally FLAG-tagged PARP2 (amino acids 1-583) (Homo sapiens, UniProt Q9UGN5); assay: PARP2 probe displacement HTRF assay; assay type: binding; settings: binned Kd
T2 construct: N-terminally FLAG-tagged PARP2 (amino acids 1-583)
T2 sequence (Q9UGN5 whole entry, the tested form may be a part): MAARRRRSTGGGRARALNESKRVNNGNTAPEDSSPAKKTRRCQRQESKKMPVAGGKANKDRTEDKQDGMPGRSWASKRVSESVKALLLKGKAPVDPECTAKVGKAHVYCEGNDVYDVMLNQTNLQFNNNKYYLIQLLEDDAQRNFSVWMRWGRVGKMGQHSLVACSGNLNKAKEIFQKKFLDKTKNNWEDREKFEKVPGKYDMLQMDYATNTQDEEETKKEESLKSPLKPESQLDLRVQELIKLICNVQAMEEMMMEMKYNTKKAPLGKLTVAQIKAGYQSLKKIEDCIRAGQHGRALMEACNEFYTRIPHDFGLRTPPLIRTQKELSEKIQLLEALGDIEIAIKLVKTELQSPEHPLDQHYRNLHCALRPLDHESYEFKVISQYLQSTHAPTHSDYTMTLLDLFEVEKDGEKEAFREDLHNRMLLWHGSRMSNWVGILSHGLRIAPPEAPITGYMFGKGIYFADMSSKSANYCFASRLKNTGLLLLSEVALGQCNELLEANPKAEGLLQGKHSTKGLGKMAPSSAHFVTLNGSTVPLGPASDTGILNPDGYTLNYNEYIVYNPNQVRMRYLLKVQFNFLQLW
Experimental: Data analysis was performed identical as for PARP1.

[3] = target: T1, full length N-terminally FLAG-tagged PARP1; assay: PARP1 biochemical DELFIA assay (auto-PARylation); parameters: recombinant full length human N-terminally FLAG-tagged PARP1; settings: binned IC50, PARP1 biochemical DELFIA assay

T1 sequence (P09874 whole entry, the tested form may be a part): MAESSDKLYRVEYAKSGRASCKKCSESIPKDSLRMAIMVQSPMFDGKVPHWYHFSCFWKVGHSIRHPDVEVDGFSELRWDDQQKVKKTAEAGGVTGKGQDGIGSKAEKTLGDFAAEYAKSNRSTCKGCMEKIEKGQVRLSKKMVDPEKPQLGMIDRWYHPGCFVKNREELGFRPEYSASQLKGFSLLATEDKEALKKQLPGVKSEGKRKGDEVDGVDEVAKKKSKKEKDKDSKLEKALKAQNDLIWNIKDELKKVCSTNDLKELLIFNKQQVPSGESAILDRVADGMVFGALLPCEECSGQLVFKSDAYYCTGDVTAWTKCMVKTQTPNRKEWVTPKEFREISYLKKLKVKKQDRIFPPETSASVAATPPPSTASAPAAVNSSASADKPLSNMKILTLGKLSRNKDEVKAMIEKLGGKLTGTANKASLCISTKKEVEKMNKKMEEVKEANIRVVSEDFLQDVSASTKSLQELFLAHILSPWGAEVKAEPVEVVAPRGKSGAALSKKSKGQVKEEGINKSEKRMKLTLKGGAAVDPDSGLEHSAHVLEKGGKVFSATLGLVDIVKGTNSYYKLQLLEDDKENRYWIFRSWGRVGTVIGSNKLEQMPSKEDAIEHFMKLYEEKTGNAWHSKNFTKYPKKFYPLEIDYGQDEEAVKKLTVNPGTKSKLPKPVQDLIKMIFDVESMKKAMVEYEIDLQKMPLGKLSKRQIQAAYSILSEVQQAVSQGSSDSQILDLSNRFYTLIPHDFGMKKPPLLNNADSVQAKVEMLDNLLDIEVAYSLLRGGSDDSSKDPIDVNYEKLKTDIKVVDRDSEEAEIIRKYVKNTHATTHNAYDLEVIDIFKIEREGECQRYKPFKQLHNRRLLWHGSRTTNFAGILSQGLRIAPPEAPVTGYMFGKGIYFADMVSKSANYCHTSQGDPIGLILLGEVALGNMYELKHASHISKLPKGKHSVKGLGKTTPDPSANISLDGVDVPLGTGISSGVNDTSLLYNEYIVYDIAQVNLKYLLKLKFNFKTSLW

Kd ([1]; read-out: PARP1 HTRF)	Kd ([2]; PARP2 probe displacement HTRF)	IC50 [3]	Kd ([2]; probe displacement HTRF)	Kd ([1]; PARP1 HTRF)	SMILES	Selectivity [1]
10 to 100 nM	> 10000 nM	–	–	–	CNC(=O)c1ccc(N2CCC(N3CCC(c4nc5cnccc5c(=O)[nH]4)C3)CC2)cn1 (single isomer, unassigned) [Compound 84b]	++ (++ indicates a value of 50 to less than 100)
10 to 100 nM	< 10 nM	–	–	–	O=c1[nH]c(C2CCN(C3CCN(c4ccc(-c5ncc[nH]5)cc4)CC3)C2)nc2ccccc12 (single isomer, unassigned) [Compound 76b]	− (− indicates a value of less than 10)
10 to 100 nM	100 to 1000 nM	–	–	–	O=c1[nH]c(C2CCN(C3CCN(c4ccc(-c5ncc[nH]5)cc4)CC3)C2)nc2ccccc12 (single isomer, unassigned) [Compound 76a]	− (− indicates a value of less than 10)
100 to 1000 nM	> 10000 nM	–	–	–	CNC(=O)c1ccc(N2CCC(N3CCCC(c4nc5ccccc5c(=O)[nH]4)C3)CC2)nc1 (single isomer, unassigned) [Compound 83b]	+ (+ indicates a value of 10 to less than 50)
10 to 100 nM	> 10000 nM	–	–	–	CNC(=O)c1ccc(N2CCC(N3CCC(c4nc5ccncc5c(=O)[nH]4)C3)CC2)cn1 (single isomer, unassigned) [Compound 81b]	+++ (+++ indicate a value of at least 100)
100 to 1000 nM	> 10000 nM	–	–	–	CNC(=O)c1ccc(N2CCC(N3CCC(c4nc5ccncc5c(=O)[nH]4)C3)CC2)cn1 (single isomer, unassigned) [Compound 81a]	+ (+ indicates a value of 10 to less than 50)
10 to 100 nM	100 to 1000 nM	–	–	–	N#Cc1ccc(N2CCC(N3CCCC(c4nc5ccccc5c(=O)[nH]4)C3)CC2)cc1 (single isomer, unassigned) [Compound 79b]	+ (+ indicates a value of 10 to less than 50)
< 10 nM	100 to 1000 nM	–	–	–	CNC(=O)c1ccc(N2CCC(N3CCC(c4nc5ccccc5c(=O)[nH]4)C3)CC2)cc1 (single isomer, unassigned) [Compound 80a]	+++ (+++ indicate a value of at least 100)
1000 to 10000 nM	> 10000 nM	–	–	–	CNC(=O)c1ccc(N2CCC(N3CCC(c4nc5cnccc5c(=O)[nH]4)C3)CC2)cn1 (single isomer, unassigned) [Compound 84a]	− (− indicates a value of less than 10)
10 to 100 nM	100 to 1000 nM	–	–	–	N#Cc1ccc(N2CCC(N3CCCC(c4nc5ccccc5c(=O)[nH]4)C3)CC2)cc1 (single isomer, unassigned) [Compound 79a]	+ (+ indicates a value of 10 to less than 50)
10 to 100 nM	> 10000 nM	–	–	–	CNC(=O)c1ccc(N2CCC(N3CCCC(c4nc5ccccc5c(=O)[nH]4)C3)CC2)cc1 (single isomer, unassigned) [Compound 82b]	++ (++ indicates a value of 50 to less than 100)
< 10 nM	1000 to 10000 nM	–	–	–	CNC(=O)c1ccc(N2CCC(N3CCC(c4nc5cc(Cl)ccc5c(=O)[nH]4)C3)CC2)cn1 (single isomer, unassigned) [Compound 87b]	+++ (+++ indicate a value of at least 100)
10 to 100 nM	100 to 1000 nM	–	–	–	CNC(=O)c1ccc(N2CCC(N3CCCC(c4nc5ccccc5c(=O)[nH]4)C3)CC2)cc1 (single isomer, unassigned) [Compound 82a]	− (− indicates a value of less than 10)
100 to 1000 nM	1000 to 10000 nM	–	–	–	CNC(=O)c1ccc(N2CCC(N3CCC(c4nc5cc(Cl)ccc5c(=O)[nH]4)C3)CC2)cn1 (single isomer, unassigned) [Compound 87a]	+ (+ indicates a value of 10 to less than 50)
100 to 1000 nM	1000 to 10000 nM	–	–	–	CNC(=O)c1ccc(N2CCC(N3CCCC(c4nc5ccccc5c(=O)[nH]4)C3)CC2)nc1 (single isomer, unassigned) [Compound 83a]	− (− indicates a value of less than 10)
100 to 1000 nM	100 to 1000 nM	–	–	–	CNC(=O)c1ccc(N2CCC(N3CCC(c4nc5ccccc5c(=O)[nH]4)C3)CC2)cc1 (single isomer, unassigned) [Compound 80b]	− (− indicates a value of less than 10)
10 to 100 nM	100 to 1000 nM	–	–	–	CNC(=O)c1ccc(N2CCC(N3CCC(c4nc5cccc(Cl)c5c(=O)[nH]4)C3)CC2)cn1 (single isomer, unassigned) [Compound 85a]	+ (+ indicates a value of 10 to less than 50)

Continued, compound first:

SMILES	Kd ([1]; read-out: PARP1 HTRF)	Kd ([2]; PARP2 probe displacement HTRF)	IC50 [3]	Kd ([2]; probe displacement HTRF)	Kd ([1]; PARP1 HTRF)	Selectivity [1]
CNC(=O)c1ccc(N2CCC(N3CCC(c4nc5c(C(F)(F)F)cccc5c(=O)[nH]4)C3)CC2)cn1 (single isomer, unassigned) [Compound 178a]	100 to 1000 nM	1000 to 10000 nM	–	–	–	− (− indicates a value of less than 10)
CNC(=O)c1ccc(N2CCC(N3CCCC(c4nc5cccnc5c(=O)[nH]4)C3)CC2)cn1 (single isomer, unassigned) [Compound 89b]	100 to 1000 nM	> 10000 nM	–	–	–	+ (+ indicates a value of 10 to less than 50)
CNC(=O)c1ccc(N(C)CCCN2CCC(c3nc4ccccc4c(=O)[nH]3)CC2)cn1 [Compound 12]	–	–	100 to 1000 nM	–	–	–
CCc1cnc(C2CCCN(C3CCN(c4ccc(C(=O)NC)nc4)CC3)C2)[nH]c1=O (single isomer, unassigned) [Compound 31a]	–	–	1000 to 10000 nM	–	–	–
CNC(=O)c1ccc(N2CCC(N3CCCC(c4nc5cccnc5c(=O)[nH]4)C3)CC2)cn1 (single isomer, unassigned) [Compound 89a]	> 10000 nM	> 10000 nM	–	–	–	− (− indicates a value of less than 10)
CCN1CCCc2c1nc(C13CC(C1)N(C1CCN(c4ccc(C(=O)NC)nc4)CC1)C3)[nH]c2=O [Compound 383]	–	–	–	100 to 1000 nM	–	–
CNC(=O)c1ccc(OCCN2CCCC(Cc3nc4ccccc4c(=O)[nH]3)C2)cn1 (single isomer, unassigned) [Compound 14a, N-methyl-5-(2-(3-((4-oxo-3,4-dihydroquinazolin-2-yl)methyl)piperidin-1-yl)ethoxy)picolinamide]	–	–	1000 to 10000 nM	–	–	–
CNC(=O)c1ccc(N2CCC(CN3CCC(c4ncc(C(F)(F)F)c(=O)[nH]4)CC3)CC2)cn1 [Compound 75]	–	> 10000 nM	–	–	1000 to 10000 nM	− (− indicates a value of less than 10)
CNC(=O)c1ccc(N2CCC(N3CCC(c4nc5onc(C(F)(F)F)c5c(=O)[nH]4)C3)CC2)cn1 (racemic) [Compound 176rac]	100 to 1000 nM	> 10000 nM	–	–	–	+ (+ indicates a value of 10 to less than 50)
CNC(=O)c1ccc(N2CCC(N3CCC(c4cc5c(F)cncc5c(=O)[nH]4)C3)CC2)c(F)n1 (single isomer, unassigned) [Compound 343b, 6-fluoro-5-(4-(3-(5-fluoro-1-oxo-1,2-dihydro-2,7-naphthyridin-3-yl)pyrrolidin-1-yl)piperidin-1-yl)-N-methylpicolinamide]	–	–	–	1000 to 10000 nM	–	–
CNC(=O)c1ccc(N2CCC(N3CCC(c4nc5cccnc5c(=O)[nH]4)C3)CC2)cn1 (single isomer, unassigned) [Compound 77a]	100 to 1000 nM	> 10000 nM	–	–	–	+ (+ indicates a value of 10 to less than 50)
CNC(=O)c1ccc(N2CCC(N3CCC(c4nc5cccnc5c(=O)[nH]4)C3)CC2)cn1 (single isomer, unassigned) [Compound 77b]	10 to 100 nM	> 10000 nM	–	–	–	+++ (+++ indicate a value of at least 100)
CNC(=O)c1ccc(N2CCC(N3CCC4CC4(c4nc5ccccc5c(=O)[nH]4)C3)CC2)cn1 (single isomer, unassigned) [Compound 90a]	100 to 1000 nM	> 10000 nM	–	–	–	+ (+ indicates a value of 10 to less than 50)
CNC(=O)c1ccc(N2CCC(N3CCCC(c4nc5ccc(F)cc5c(=O)[nH]4)C3)CC2)cn1 (single isomer, unassigned) [Compound 78a]	< 10 nM	1000 to 10000 nM	–	–	–	+++ (+++ indicate a value of at least 100)
CNC(=O)c1ccc(N2CCC(N3CCCC(c4nc5cccc(F)c5c(=O)[nH]4)C3)CC2)cn1 (single isomer, unassigned) [Compound 88a]	100 to 1000 nM	100 to 1000 nM	–	–	–	− (− indicates a value of less than 10)
CNC(=O)c1ccc(N2CCC(N3CCC4CC4(c4nc5ccccc5c(=O)[nH]4)C3)CC2)cn1 (single isomer, unassigned) [Compound 90b]	100 to 1000 nM	1000 to 10000 nM	–	–	–	+ (+ indicates a value of 10 to less than 50)
CNC(=O)c1ccc(N2CCC(N3CCC(c4cc5ccc(C(F)(F)F)cc5c(=O)[nH]4)C3)CC2)cn1 (racemic) [Compound 177rac]	< 10 nM	> 10000 nM	–	–	–	+++ (+++ indicate a value of at least 100)
CNC(=O)c1ccc(N2CCC(N3CCC(c4nc5c(C(F)(F)F)cccc5c(=O)[nH]4)C3)CC2)cn1 (single isomer, unassigned) [Compound 178b]	< 10 nM	1000 to 10000 nM	–	–	–	+++ (+++ indicate a value of at least 100)
CNC(=O)c1ccc(N2CCC(N3CCCC(c4nc5ccc(F)cc5c(=O)[nH]4)C3)CC2)cn1 (single isomer, unassigned) [Compound 78b]	10 to 100 nM	100 to 1000 nM	–	–	–	+ (+ indicates a value of 10 to less than 50)
CNC(=O)c1ccc(N2CCC(N3CCCC(c4nc5cccc(F)c5c(=O)[nH]4)C3)CC2)cn1 (single isomer, unassigned) [Compound 88b]	< 10 nM	1000 to 10000 nM	–	–	–	+++ (+++ indicate a value of at least 100)
